Laboratory results taken from publication PMC7822874, “Chemoprotective antimalarials identified through quantitative high-throughput screening of Plasmodium blood and liver stage parasites” (Scientific Reports, 2021).

Test system: Plasmodium falciparum Dd2 asexual blood stage parasites
Experiment: microbe, parasite or virus in culture
Design: species or system Plasmodium falciparum Dd2 in human erythrocytes; single determination (one 11-point concentration-response curve)
Conditions: Plasmodium falciparum, DD2, Erythrocyte, 72 h; read-out: AC50

Row | SMILES | AC50
1 | c1ccc(-c2ccc3ncc(Nc4cccnc4)n3n2)cc1 [NCGC00412518-01] | 4.85 µM
2 | OCc1cccc(-c2ccc3ncc(Nc4ccc(OCCN5CCCC5)cc4)n3n2)c1 [NCGC00412543-01] | 3.44 µM
3 | COc1ccccc1-c1ccc2ncc(Nc3ccc4[nH]ccc4c3)n2n1 [NCGC00412550-01] | 4.33 µM
4 | Fc1ccc(-c2ccc3ncc(Nc4ccnc(N5CCOCC5)c4)n3n2)cc1 [NCGC00412558-01] | 1.72 µM
5 | COc1cncc(Nc2cnc3ccc(-c4ccc(OC)c(OC)c4)nn23)c1 [NCGC00412563-01] | 1.22 µM
6 | COc1cncc(Nc2cnc3ccc(-c4ccc(F)cc4)nn23)c1 [NCGC00412595-01] | 3.06 µM
7 | c1ccc(Oc2ccc(Nc3cnc4ccc(N5CCOCC5)nn34)cc2)cc1 [NCGC00412601-01] | 7.69 µM
8 | COc1ccc(-c2ccc3ncc(Nc4ccnc(N5CCOCC5)c4)n3n2)cn1 [NCGC00412623-01] | 4.85 µM
9 | O=C(c1ccc(-c2ncc3cnc(-c4ccccc4)cn23)cc1)N1CCc2cccnc21 [NCGC00413975-01] | 17.2 µM
10 | O=C(c1cccc(O)c1)N1CC=C(c2cnc3cnc(-c4ccccc4)cn23)CC1 [NCGC00414040-01] | 9.68 µM
11 | Cc1ccccc1-c1nccn2c(C3CN(Cc4ccccc4O)C3)ncc12 [NCGC00414046-01] | 5.44 µM
12 | COCCCNC(=O)C1(C)CN(C)Cc2ccc(Nc3ccccc3)nc21 (stereo not drawn) [NCGC00414477-01] | 6.85 µM
13 | COCCN1Cc2ccc(NCC(C)C)nc2C(C)(C(=O)Nc2ccncc2)C1 (stereo not drawn) [NCGC00414482-01] | 21.7 µM
14 | COc1cccc(Nc2ccc3c(n2)C(C)(C(=O)NC2CCC2)CN(C)C3)c1 (stereo not drawn) [NCGC00414508-01] | 15.3 µM
15 | COc1cccc(Nc2ccc3c(n2)C(C)(C(=O)NCC2CC2)CN(C)C3)c1 (stereo not drawn) [NCGC00414531-01] | 12.2 µM
16 | COc1cccc(Nc2ccc3c(n2)C(C)(C(=O)N2CCN(C)CC2)CN(C)C3)c1 (stereo not drawn) [NCGC00414535-01] | 15.3 µM
17 | COc1cccc(Nc2ccc3c(n2)C(C)(C(=O)N2CCCC2)CN(C)C3)c1 (stereo not drawn) [NCGC00414569-01] | 17.2 µM
18 | COc1cccc(NC(=O)C2(C)CN(C)Cc3ccc(N4CCOCC4)nc32)c1 (stereo not drawn) [NCGC00414578-01] | 3.85 µM
19 | CN1Cc2ccc(Nc3ccccc3)nc2C(C)(C(=O)NCc2ccc3c(c2)OCO3)C1 (stereo not drawn) [NCGC00414588-01] | 13.7 µM
20 | Cn1cnc2ccc(-c3cccc(O)c3)nc2c1=O [NCGC00414672-01] | 6.11 µM
21 | O=C1c2c(nc(CN3CCCC(CO)C3)n2Cc2ccccc2)NCCN1Cc1cccc(Cl)c1 (stereo not drawn) [NCGC00415148-01] | 15 µM
22 | COc1ccc(NC(=O)c2nnn3c2CN(Cc2cccc(Cl)c2)C(=O)CC3)c(C)c1 [NCGC00415347-01] | 2.17 µM
23 | CC1(c2ccccc2)N(Cc2ccccc2)C(=O)OC12CCN(Cc1cccnc1)CC2 (stereo not drawn) [NCGC00415410-01] | 15.3 µM
24 | CC1(c2ccccc2)N(Cc2cccnc2)C(=O)OC12CCN(C(=O)Cc1ccc(Cl)cc1)CC2 (stereo not drawn) [NCGC00415462-01] | 13.3 µM
25 | COc1cccc(CN2C(=O)OC3(CCN(Cc4c[nH]c5ccccc45)CC3)C2(C)c2cccnc2)c1 (stereo not drawn) [NCGC00415482-01] | 8.41 µM
26 | Cc1nc(CN2C(=O)OC3(CCN(C(=O)Cc4ccc5c(c4)OCO5)CC3)C2(C)c2ccccc2)cs1 (stereo not drawn) [NCGC00415487-01] | 2.11 µM

Row | SMILES | AC50
27 | COc1ccc(C(=O)N2CCC3(CC2)OC(=O)N(Cc2ccc(O)cc2)C3(C)c2ccccc2)cn1 (stereo not drawn) [NCGC00415507-01] | 6.68 µM
28 | COc1ccccc1C(=O)N1CCC2(CC1)OC(=O)N(CCOc1ccccc1)C2(C)c1cccnc1 (stereo not drawn) [NCGC00415508-01] | 9.44 µM
29 | COc1cccc(CN2C(=O)OC3(CCN(Cc4ccc5c(c4)CCO5)CC3)C2(C)c2cccnc2)c1 (stereo not drawn) [NCGC00415555-01] | 4.73 µM
30 | COc1cccc(CN2C(=O)OC3(CCN(Cc4ccccc4OC)CC3)C2(C)c2cccnc2)c1 (stereo not drawn) [NCGC00415564-01] | 4.73 µM
31 | COc1cncc(CN2CCC3(CC2)OC(=O)N(Cc2ccc(O)cc2)C3(C)c2ccccc2)c1 (stereo not drawn) [NCGC00415566-01] | 9.44 µM
32 | CC1(c2ccccc2)N(Cc2ccccc2)C(=O)OC12CCN(Cc1cccc(O)c1)CC2 (stereo not drawn) [NCGC00415604-01] | 8.41 µM
33 | COc1cccc(CN2CCC3(CC2)OC(=O)N(Cc2ccccc2)C3(C)c2ccccc2)c1 (stereo not drawn) [NCGC00415605-01] | 15 µM
34 | Cc1nc(CN2C(=O)OC3(CCN(C(=O)c4ccc(Oc5ccccc5)cc4)CC3)C2(C)c2ccccc2)cs1 (stereo not drawn) [NCGC00415614-01] | 13.3 µM
35 | COc1ccccc1C(=O)N1CCC2(CC1)OC(=O)N(Cc1ccccc1C#N)C2(C)c1ccccc1 (stereo not drawn) [NCGC00415624-01] | 15 µM
36 | CC1(c2ccccc2)N(Cc2cccnc2)C(=O)OC12CCN(Cc1ccccc1)CC2 (stereo not drawn) [NCGC00415633-01] | 17.2 µM
37 | CC1(c2ccccc2)N(Cc2ccccc2F)C(=O)OC12CCN(Cc1cccc(O)c1)CC2 (stereo not drawn) [NCGC00415649-01] | 6.68 µM
38 | CC1(c2ccccc2)N(Cc2ccc(O)cc2)C(=O)OC12CCN(Cc1c[nH]c3ccccc13)CC2 (stereo not drawn) [NCGC00415668-01] | 5.31 µM
39 | CN1CCN(Cc2nnc(C(=O)N3CCC[C@@H]3c3ccc(Br)cc3)n2Cc2ccccc2)CC1 [NCGC00415715-01] | 7.5 µM
40 | O=C(c1nnc(CN2CCC(F)(F)CC2)n1-c1cccnc1)N1CCC[C@@H]1C(c1ccccc1)c1ccccc1 [NCGC00415758-01] | 15 µM
41 | Cn1ccc(NCc2nnc(C(=O)N3CCC[C@@H]3C(c3ccccc3)c3ccccc3)n2-c2ccccc2)n1 [NCGC00415774-01] | 1.33 µM
42 | O=C(c1nnc(CNc2ccncc2)n1-c1ccccc1)N1CCC[C@@H]1C(c1ccccc1)c1ccccc1 [NCGC00415781-01] | 10.6 µM
43 | CC(=O)Nc1cccc(OCc2nnc(C(=O)N3CCC[C@@H]3C(c3ccccc3)c3ccccc3)n2-c2ccccc2)c1 [NCGC00415783-01] | 10.6 µM
44 | O=C(c1nnc(COc2ccc(OC(F)(F)F)cc2)n1-c1ccccc1)N1CCC[C@@H]1C(c1ccccc1)c1ccccc1 [NCGC00415795-01] | 8.41 µM
45 | O=[S+]([O-])(c1ccccc1)N1CC(CNc2cccnc2)C2(CN(c3ccccc3)C2)C1 (stereo not drawn) [NCGC00415961-01] | 21.7 µM
46 | CN(C)Cc1cn2c(=O)n(C)cc(-c3cccc(C(F)(F)F)c3)c2n1 [NCGC00416418-01] | 21.7 µM
47 | Cc1noc(C)c1-c1nccc2c(=O)cc(N(C)c3ccccc3)oc12 [NCGC00416678-01] | 17.2 µM
48 | O=c1cc(-c2cccnc2)oc2c(-c3ccccc3Oc3ccccc3)nccc12 [NCGC00416761-01] | 17.2 µM
49 | COc1cc2c(cc1Oc1ccccc1)NC(=O)C21CCN(c2cnccn2)CC1 [NCGC00416813-01] | 2.17 µM
50 | COc1cc2c(cc1OC1CCCC1)NC(=O)C21CCN(Cc2nccs2)CC1 [NCGC00416850-01] | 19.3 µM
51 | COc1cc2c(cc1OC1CCCC1)NC(=O)C21CCN(C(=O)c2cccc(C#N)c2)CC1 [NCGC00416876-01] | 8.41 µM
52 | COc1cc2c(cc1OC1CCCC1)NC(=O)C21CCN(c2cnccn2)CC1 [NCGC00416906-01] | 7.69 µM

Row | SMILES | AC50
53 | COc1cc2c(cc1OCC1CC1)NC(=O)C21CCN(c2nccs2)CC1 [NCGC00416908-01] | 21.7 µM
54 | COc1cc2c(cc1OCc1ccccc1)NC(=O)C21CCN(c2ccccn2)CC1 [NCGC00416940-01] | 15.3 µM
55 | CN1CCOc2c(C(=O)NCc3cccnc3)cc(-c3cccc4[nH]ccc34)cc21 [NCGC00416962-01] | 8.63 µM
56 | Cc1cc(C)c(CNC(=O)c2cc(-c3cccnc3)cc3c2OCCN3C(C)C)c(=O)[nH]1 [NCGC00416981-01] | 19.3 µM
57 | COc1ncc(-c2cc(C(=O)NCc3c(C)cc(C)[nH]c3=O)c3c(c2)N(C(C)C)CCO3)cn1 [NCGC00416983-01] | 9.44 µM
58 | CN(C)CCNC(=O)c1cc(-c2ccccc2F)cc2c1OCCN2Cc1cccnc1 [NCGC00416987-01] | 6.85 µM
59 | COc1ccc(-c2cc(C(=O)NCc3c(C)cc(C)[nH]c3=O)c3c(c2)N(C)CCO3)cn1 [NCGC00417013-01] | 19.3 µM
60 | CC(=O)Nc1cc(-c2cc(C(=O)NCCc3c[nH]cn3)c3c(c2)N(C)CCO3)ccn1 [NCGC00417032-01] | 13.7 µM
61 | CC(=O)Nc1cccc(-c2cc(C(=O)NCc3c(C)cc(C)[nH]c3=O)c3c(c2)N(C(C)C)CCO3)c1 [NCGC00417042-01] | 9.44 µM
62 | CNC(=O)c1cc(-c2ccnc(N3CCOCC3)c2)cc2c1OCCN2Cc1cccnc1 [NCGC00417111-01] | 8.41 µM
63 | Cc1cc(C)c(CNC(=O)c2cc(-c3ccnn3C)cc3c2OCCN3C(C)C)c(=O)[nH]1 [NCGC00417130-01] | 15.3 µM
64 | COc1ncccc1-c1nc(-c2c(C)noc2C)cc2c1cc(-c1ccccc1)n2C [NCGC00417163-01] | 13.7 µM
65 | Cc1noc(C)c1-c1cc2c(cc(-c3ccccc3)n2C)c(-c2cccnc2)n1 [NCGC00417168-01] | 10.9 µM
66 | Cc1noc(C)c1-c1cc2c(cc(C)n2CCN(C)C)c(-c2cccc(O)c2)n1 [NCGC00417178-01] | 17.2 µM
67 | Cc1noc(C)c1-c1cc2c(cc(C)n2CCN(C)C)c(Nc2ccn(C)n2)n1 [NCGC00417199-01] | 13.7 µM
68 | COc1cc(-c2nc(-c3c(C)noc3C)cc3c2cc(C)n3CCN(C)C)ccn1 [NCGC00417201-01] | 17.2 µM
69 | COc1cccc(-c2nc(-c3c(C)noc3C)cc3c2cc(C)n3CCN(C)C)c1 [NCGC00417217-01] | 17.2 µM
70 | Cc1noc(C)c1-c1cc2cc(CN(C)C)oc2c(NCCc2ccccc2)n1 [NCGC00417471-01] | 13.7 µM
71 | Cc1noc(C)c1-c1cc2cc(CN(C)C)oc2c(Nc2cccnc2)n1 [NCGC00417472-01] | 12.2 µM
72 | Cc1cc2cc(-c3c(C)noc3C)nc(N(C)CCN(C)C)c2o1 [NCGC00417474-01] | 12.2 µM
73 | Cc1noc(C)c1-c1cc2cc(CN(C)C)oc2c(NCCOc2ccccc2)n1 [NCGC00417493-01] | 15.3 µM
74 | Cc1noc(C)c1-c1cc2cc(CN(C)C)oc2c(NCc2cccnc2)n1 [NCGC00417547-01] | 1.22 µM
75 | CNC(=O)CCn1ncc2cc(OCc3ccccc3-c3ccccc3OC)ccc21 [NCGC00418023-01] | 15.3 µM
76 | CNC(=O)CCn1ncc2cc(OCc3ccccc3-c3ccc(OC)cc3Cl)ccc21 [NCGC00418132-01] | 16.8 µM
77 | O=C1COCC2(CN(Cc3ccsc3)C2)CN1Cc1cccc(OC(F)(F)F)c1 [NCGC00418928-01] | 17.2 µM
78 | O=C(Cc1ccc2c(c1)OCO2)N1CCOCC2(CN(Cc3ccccc3)C2)C1 [NCGC00418996-01] | 6.85 µM
